The values below come from US10253002B2, “Compounds and methods of treating infections” (Neoculi Pty Ltd., priority 2013, dated 2019).

Assay [1] has as its system Staphylococcus aureus. The following applies: control strain Staphylococcus aureus ATCC 29213; cited from earlier work.
Another assay deals with Streptococcus pneumoniae. The following applies: control strain Streptococcus pneumoniae ATCC 49619; cited from earlier work.
For assay [2] the following is noted: control strain Enterococcus faecalis ATCC 29212; cited from earlier work.
The next assay deals with S. aureus KC01. The assay can be described thus: Kill kinetics assay, Example 8. The assay is classed as cell-based, Staphylococcus aureus. The protocol:
S. aureus KC01 and E. faecalis USA01, not determined to be MRSA or VRE, respectively, were grown overnight on Columbia SBA at 37° C. A few colonies of bacteria were then suspended in CAMHB (cation-adjusted Mueller Hinton broth) and adjusted to OD600 of 0.08 to 0.10. The bacterial suspension was diluted 1:10. […] The tubes were incubated at 37° C., with constant shaking. In order to determine the number of viable bacteria present at various time points, a 100 μL aliquot was removed from each tube and diluted. Then, 100 μL of each dilution were spread onto colony count agar, in duplicate, and incubated for 48 h at 37° C. After 24 h the numbers of colonies present on each plate were counted and therefore the number of viable bacteria present in the original suspension enumerated. Plates were re-checked after 48 hours.

For assay [3], the system named is Staphylococcus aureus. The assay can be described thus: Mouse skin wound infection model, topical treatment. The following applies: 14 treatments. Type of assay: in vivo, mice. From the text: Preliminary studies prior to the conduct of the current study established a new method of skin infection arising from a detailed study of the models mentioned above. Briefly, study mice are anaesthetised, a patch of dorsal skin is clipped to reveal the skin and a circular area of skin is removed with a hand held punch, leaving a wound on the dorsum with a central cavity. The wound is infected with a known number of the challenge organism. Approximately four to six hours after infection, the wound is either treated topically with a vehicle formulation or an active formulation. The infected skin wound is retreated every 12 hours for a total of 14 treatments. Mice are humanely euthanased, the area of the original infected wound is dissected and removed and its bacterial content quantified by standard microbiologic tests. In this way, the change in bacterial concentration due to treatment with the active formulation can be readily determined by examining the reduction in bacterial burden compared with the vehicle control. Fresh cultures of bacteria (Staphylococcus aureus) were grown on Sheep Blood Agar at 37° C. for 16-18 hours. A few typical colonies were selected and suspended in 10 ml of Tryptic Soy Broth and incubated overnight in a shaking incubator (240 rpm) at 37° C. The overnight suspension was vortexed and diluted (1:100) in fresh Tryptic soy broth (100 μl [0.1 ml] in 9.9 ml broth). The fresh suspension was incubated for 3 hours in a shaking incubator (as above) in order to obtain mid-logarithmic phase bacteria. Bacteria were pelleted through centrifugation at 7,500 rpm for 10 mins. Broth supernatant was removed and bacteria suspended in 10 ml Phosphate Buffered Saline (PBS). These steps were repeated a further two times. The density of the suspension was checked by measuring absorbance at 600 nm, using a spectrophotometer with saline as a blank, to confirm the target density at a reading of approximately 0.100, consistent with a bacterial density of 2.5×10^7 CFU/ml. The suspension was placed into a rack placed into a lockable transport box with an ice brick to maintain refrigeration during transport, followed by storage in cool room upon arrival at the mouse skin infection laboratory. Final suspension was mixed thoroughly before inoculating the skin wounds created in mice. […] Eyes of each anaesthetised mouse were covered with veterinary eye lubricant in order to prevent corneal dehydration. Each mouse removed from induction chamber and placed onto surgical area, in front of individual aesthetic nose cone. While under anaesthesia each mouse was monitored for assessment of depth of anaesthesia (response to pain, blink reflex, skeletal muscle tone) and respiratory and cardiac function. Back skin hair was shaved from surgical area with mechanical clippers. […] Once the iodine solution was dry, a subcutaneous injection of the nonsteroidal anti-inflammatory agent meloxicam was administered. Dorsal skin was pinched gently to allow creation of a circular full-thickness wound using ear punch/biopsy punch. […] Once the bacterial suspension was dry, mice were placed into individual recovery boxes labelled with the mouse number. The time of inoculation was recorded. Initial body weights of each mouse were recorded on the appropriate score sheet. Mice recovered to full consciousness within 5 minutes. Recovered mice were returned to individual housing and monitored hourly for post-surgical or anaesthetic complications. […] Each ointment container was weighted prior to administration and the weight recorded. Each mouse was carefully restrained. […] The weight of the ointment container post-administration was recorded. […] At the end of the 7 day skin wound assessment period, all test mice were euthanased prior to wound collection for post mortem examination. The skin wound was dissected from the dorsum of each mouse. The sample was placed in a sample tube and weighed before 1 ml PBS and sterile tissue homogenisation beads were added. […]

Another assay has as its system S. aureus MK01 and KC01. The assay can be described thus: MIC, Example 8. The following applies: Staphylococcus aureus, MK01ANDKC01, S. aureus KC01. The assay is classed as cell-based.
The subject of another assay is S. pneumoniae strain D39. In words: Macro-broth dilution time kill studies. The assay is classed as cell-based, Streptococcus pneumoniae. Here is the method: Bacterial suspensions and working antibiotic stocks were prepared as described above. [For preparing macro-broth dilutions, 20 mL tubes were filled each with 9 mL of 4% LHB:CAMHB. 9 mL of a working antimicrobial stock was diluted 1:2 when added to one of the tubes, and then serial diluted down from a high to low concentration of antimicrobial. 1 mL of S. pneumoniae bacterial suspension was added to the appropriate tubes, including the positive control. […] At every 2-3 h during the first 12 h of growth and then at 24 h and 48 h, 50 μL of each bacterial suspension was spread plated onto HBA and incubated at 37° C. with 5% CO2 for 16-24 h.]
Table 17 below indicates the concentrations used for each antimicrobial. Cultures were incubated at 37° C. in 5% CO2 with gentle manual tilting every 10 min for the first 12 h. Viable counts from 50 μL aliquots of each concentration were read following incubation at 37° C. in 5% CO2 for 24 h. The pH of each sample was measured at specific time points using pH indicator strips. Confluent growth was defined when more than 1000 colonies were counted per plate. A bactericidal effect was defined as a 1000 fold reduction (99.9%) of the original cell suspension determined at 24 h for each concentration.
(Dilution methods test growth across graded concentrations, often in twofold steps.)

Assay [4] in a line: Bioassay ranking of the analogues tested. The following applies: M + R (MRSA and VRE combined).

In brackets after ≈: the same amount, converted by molar mass.

Source text for S. aureus MK01 and KC01: Two Staphylococcus aureus isolates were used in the following experiments; S. aureus MK01 a human skin strain, and S. aureus KC01 an equine skin strain. These isolates were identified by Gram stain and biochemical methods, including the Remel Staphaurex commercial kit. […] As this isolate has previously been speciated, it was not subjected to further testing, except for observation of pure, characteristic growth on blood agar.

Regarding `CC1(C)S[C@@H]2[C@H](NC(=O)[C@H](N)c3ccccc3)C(=O)N2[C@H]1C(=O)O` [Ampicillin], the “Acceptable MIC range for Ampicillin” value in the assay with Staphylococcus aureus [1] is 0.5 to 2 µg/mL; with Streptococcus pneumoniae, 0.06 to 0.25 µg/mL; in assay [2], 0.5 to 2 µg/mL.

As a reminder, the MIC is the lowest concentration that inhibits growth of the organism. Take `N=C(N/N=C/c1ccc(Cl)cc1)N/N=C/c1ccc(Cl)cc1` [NCL812, 1,3-bis[(E)-(4-chlorophenyl)methyleneamino]guanidine]: in the assay on S. aureus KC01 (2 h), the “reduction in bacterial numbers from initial numbers” value was at least 2.5 log10 and the “reduction in comparison to the control at the same time point” value is given as above 3 log10. In addition, in the assay on S. aureus KC01 (6 h incubation), the “reduction in bacterial numbers” value was at least 2 log10. The “numbers of bacteria versus control” value in the assay on S. aureus KC01 (after 24 h) is listed as “not significantly different to the control”. For the same molecule, in the assay on Staphylococcus aureus [3] (mice, Formulation B 20 mg/g topically every 12 hours, vehicle 6.77), the “mean colony count per g of tissue, log10” value came out at 5.15 log10. The “mean colony count per g of tissue” value with Staphylococcus aureus [3] (mice, Formulation B 20 mg/g topically every 12 hours, vehicle 5,888,436) is 141,254. For the same molecule, the “% reduction (of colony forming units per gram of tissue versus vehicle)” value in the assay with Staphylococcus aureus [3] (mouse skin wound infected with Staphylococcus aureus, topical ointment (Formulation B, 20 mg/g) every 12 hours, end of 7 day period, relative to vehicle group) turned out to be 97.6%. The “Log10 (CFU/g): colony forming units per gram of tissue” value with Staphylococcus aureus [3] (mouse skin wound infected with Staphylococcus aureus, topical ointment (Formulation B, 20 mg/g) every 12 hours, wound tissue at end of 7 day period, group mean) is recorded as 5.15 Log10 (CFU/g). Besides, the minimum inhibitory concentration (MIC) in the assay on S. aureus MK01 and KC01 came to 2 µg/mL (≈ 5.98 µM). The “growth in viable counts” value with S. pneumoniae strain D39 (2 μg/mL NCL812) is listed as “Consistent confluent growth”. In the assay with S. pneumoniae strain D39 (NCL812 at 4 μg/mL and 8 μg/mL), the “time post-exposure at which compound appeared to be inactivated (increased growth after)” value was determined as 11 h. Also, in the assay with S. pneumoniae strain D39 (between 16 μg/mL and 64 μg/mL NCL812), the “time to eliminate bacterial growth” value is at most 8 h. Further, the “M + R” value in assay [4] amounted to 2.375 µg/mL.
